# Test results as given in patent publication US4748251A, “7-n-aminomethylenemitomycin derivative” (priority 1985, dated 1988).
# Like-named read-outs stand apart in the source and are kept apart here.
# Experiments:
# [1] = tested on: Bacillus subtilis 10707; test: Antibacterial activity, agar dilution method, pH 7.0 (BS); format: cell-based
# Protocol: (§1) Antibacterial activities of some compounds covered by the present invention against various bacteria are shown by the minimum growth inhibitory concentration (μg/ml) in Table 1. The minimum growth inhibitory concentration was measured at pH 7.0 according to the agar dilution method. In the table, bacteria are indicated by the following letters.
# BS: Bacillus subtilis 10707
# [2] = tested on: Proteus vulgalis ATCC 6897; test: Antibacterial activity, agar dilution method, pH 7.0 (PV); format: cell-based
# Protocol: as §1
# PV: Proteus vulgalis ATCC 6897
# [3] = tested on: Shigella sonnei ATCC 9290; test: Antibacterial activity, agar dilution method, pH 7.0 (SS); format: cell-based
# Protocol: as §1
# SS: Shigella sonnei ATCC 9290
# [4] = tested on: Klebsiella pneumoniae ATCC 10031; test: microbe, parasite or virus in culture; format: cell-based; settings: ATCC10031, pH 7, read-out: minimum growth inhibitory concentration
# Protocol: The minimum growth inhibitory concentration was measured at pH 7.0 according to the agar dilution method. In the table, bacteria are indicated by the following letters.
# KP: Klebsiella pneumoniae ATCC 10031
# [5] = tested on: Staphylococcus aureus ATCC 6538P; test: Antibacterial activity, agar dilution method, pH 7.0 (SA); format: cell-based; settings: ATCC6538P
# Protocol: as §1
# SA: Staphylococcus aureus ATCC 6538P
# [6] = tested on: Streptococcus faecalis ATCC 10541; test: Antibacterial activity, agar dilution method, pH 7.0 (SF); format: cell-based; settings: Enterococcus faecalis
# Protocol: as §1
# SF: Streptococcus faecalis ATCC 10541
# [7] = tested on: leukemia P-388; test: Anti-tumor activity against leukemia P-388; format: in vivo, mouse (CDF1); settings: for ILS %: i.p. once, 33 days
# Protocol: (§2) Ascites was sampled from the abdominal cavity of tumor-bearing mice (DBA/2) 7 days after transplantation of P-388 ascitic tumor. The number of the P-388 cells in the ascites was counted. A suspension of the tumor cells of 5×10^6 /ml was prepared using sterilized physiological saline, and 0.2 ml of the suspension (containing 1×10^6 cells) was intraperitoneally transplanted to CDF1 mice weighing 20 to 25 g. Twenty-four hours after the transplantation of the tumor, a test compound was intraperitoneally administered once to groups of the CDF1 mice, each group consisting of 6 mice. […] The effect of the compound was evaluated by a ratio of a mean survival days of the group treated with the compound to a mean survival days of the control group (untreated group) after 33 days of observation (Increased Life Span, ILS %).
# [8] = Acute toxicity in mice; design: species or system mouse (ddY strain); settings: mouse, in vivo, ip; intraperitoneally once, ddY mice, 14 days observation, Beherns Kaerber's method
# Protocol: (§3) Taking some of the compounds falling within the present invention as examples, anti-tumor activity (ED50) against Sarcoma 180 solid tumor and acute toxicity (LD50) as well as effect on peripheral leucocytes number (WBC4000) are shown in Table 2.
# Each animal of the test group consisting of 5 ddY mice was administered intraperitoneally once with a test compound. […] The LD50 was determined by Beherns Kaerber's method.
# [9] = tested on: peripheral leucocytes; test: Effect on the peripheral leucocytes number in tumor-carrying mice; format: in vivo, mouse (ddY strain); settings: dose which reduces peripheral leucocytes number to 4000/mm^3; intraperitoneal, blood 4 days later
# From the text: as §3
# WBC4000 indicates the dose of a substance which reduces the peripheral leucocytes number to 4000/mm^3.
# (4) Effect on the peripheral leucocytes number:
# Sarcoma 180 solid tumor cells (5×10^6) were subcutaneously implanted into the right axilla of each mouse (body weight 20±2 g) of a group consisting of 5 male mice (ddY strain). 24 hours after implantation,a test compound was intraperitoneally administered to each animal. 4 days later, blood (each 0.02 ml) was collected from the suborbital plexus vein of each tumor-carrying animal. The collected sample of blood was dispersed in 9.98 ml of Cell-Kit Seven solution. One drop of saponin solution was added to the sample to dissolve erythrocytes and then a microcell counter was used to count the number of leucocytes. On graph paper, the number of leucocytes was indicated on the y-axis by an arithmetic scale and the dose of the test compound was indicated on the x-axis by a logarithmic scale. The relationship between the number of peripheral leucocytes and the dosage of the test compound was plotted and the dosage corresponding to 4000 peripheral leucocytes/mm^3 (about half the number of leucocytes of normal mice) was obtained. This value is denoted in Table 2 by WBC4000.
# [10] = tested on: Sarcoma 180 solid tumor; test: Anti-tumor activity against Sarcoma 180 solid tumor in mice; format: in vivo, mouse (ddY strain); settings: Mus musculus, Sarcoma-180, ip, 168 h; dose reducing tumor volume to 50% of control; intraperitoneal 24 hours after implantation; tumor measured 7 days after implantation
# From the text: as §3
# (1) Effect against Sarcoma 180 solid tumor cells:
# 5×10^6 cells of Sarcoma 180 solid tumor were implanted into ddY mice. 7 days later, ascites cells were sampled. The cells were washed once with a sterilized physiological solution of sodium chloride and were used to prepare a cell supspension containing 5×10^7 cells per ml. On each occasion, 0.1 ml of the cell suspension was subcutaneously implanted into the right axilla of a male mouse (ddY strain; body weight 20±2 g). The test compound was dissolved in a physiological solution of sodium chloride with or without addition of Tween 80 and was administered intraperitoneally into each mouse of a group consisting of 5 mice at a dose of 0.1-0.2 ml, 24 hours after the implantation of the tumor cells.
# The anti-tumor activity was determined in the following manner. 7 days after the implantation, the major axis (a) and the minor axis (b) of the tumor were measured to calculate a value of "a×b^2 /2" which corresponds to the volume of the tumor. The anti-tumor activity was expressed by the ratio of the volume of the tumors (T) of the group of animals administered with the test compound to the corresponding volume of tumors (C) of the untreated animals.
# (2) Determination of ED50 :
# On graph paper, T/C (the ratio of the volume of tumors of treated animals to that of control animals) was indicated by an arithmetic scale on the longitudinal axis and the administered amount of the test compound was indicated by a logarithmic scale on the lateral axis. The relationship between the dose and T/C was shown by a straight line determined by the method of least squares, from which a dose corresponding to T/C of 0.5 was obtained.
# [11] = tested on: P-388 leukemia resistant to mitomycin C; test: Anti-tumor activity against P-388 leukemia resistant to mitomycin C; format: in vivo, mouse (CDF1); settings: for ILS %: i.p. once
# Protocol: as §2
# [12] = Bacillus subtilis, 10707, pH 7, read-out: minimum growth inhibitory concentration
# [13] = pH 7, read-out: minimum growth inhibitory concentration
# [14] = ATCC9290, pH 7, read-out: minimum growth inhibitory concentration
# [15] = ATCC10541, pH 7, read-out: minimum growth inhibitory concentration
Structure (SMILES),"MIC [1, 12] [mg/L]","MIC [2, 13] [mg/L]","MIC [3, 14] [mg/L]",MIC [4] [mg/L],"MIC [5, 13] [mg/L]","MIC [6, 15] [mg/L]",LD50 at 336 h [8] [mg/kg],WEC4000 [9] [mg/kg],ED50 [10] [mg/kg],also measured
"CO[C@]12[C@@H]3[C@H](CN1C1=C(C(=O)C(N=CN(C)C)=C(C)C1=O)[C@@H]2COC(N)=O)N3C (stereo partly shown) [Compound 4a, 7-N-Dimethylaminomethylenemitomycin E]",0.16,20,10,2.5,0.63,0.63,–,–,–,–
"CO[C@@]12[C@H](COC(N)=O)C3=C(C(=O)C(C)=C(N)C3=O)N1C[C@@H]1N[C@@H]12 [MM-C, mitomycin C, reference compound]",–,–,–,–,–,–,–,–,–,"MIC ([1]; Bacillus subtilis, 10707, BS, pH 7.0, agar dilution, read-out: minimum growth inhibitory concentration): 0.04 mg/L; MIC ([2]; PV, pH 7.0, agar dilution, read-out: minimum growth inhibitory concentration): 0.08 mg/L; MIC ([3]; ATCC9290, SS, pH 7.0, agar dilution, read-out: minimum growth inhibitory concentration): 2.5 mg/L; MIC ([5]; SA, pH 7.0, agar dilution, read-out: minimum growth inhibitory concentration): 0.16 mg/L; MIC ([6]; ATCC10541, SF, pH 7.0, agar dilution, read-out: minimum growth inhibitory concentration): 0.31 mg/L"
"C=C1C2=C(C(=O)C(C)=C(N=CN(C)C)C2=O)N2C[C@H]3[C@H](N3C)[C@]12O (stereo partly shown) [Compound 1, 9a-O-Demethyl-7-N-dimethylaminomethylenemitomycin G]",0.078,10,10,10,0.078,0.078,–,–,–,"ILS ([7]; dose 10 mg/kg, similar experiment): 83%"
"C=C1C2=C(C(=O)C(C)=C(N=CN(C)C)C2=O)N2C[C@@H]3N[C@@H]3[C@]12OC [Compound 2, 1a-Demethyl-7-N-dimethylaminoethylenemitomycin G]",0.078,10,20,10,0.31,1.3,–,–,–,–
"CO[C@]12[C@@H]3[C@H](CN1C1=C(C(=O)C(N=CN(C)C)=C(C)C1=O)[C@@H]2COC(=O)N=CN(C)C)N3C (stereo partly shown) [Compound 4b, 7-N,N^10-bis(dimethylaminomethylene)mitomycin E]",2.5,–,–,40,10,5,–,–,–,–
"CC1=C(N=CN(C)C)C(=O)C2=C(C1=O)N1C[C@H]3[C@H](N3C)[C@]1(O)[C@H]2COC(=O)N=CN(C)C (stereo partly shown) [Compound 3b, 7-N,N^10-bis(dimethylaminomethylene)mitomycin D]",–,–,–,–,–,–,26.3,18.7,20.9,–
"CC1=C(N=CN(C)C)C(=O)C2=C(C1=O)N1C[C@H]3[C@H](N3C)[C@]1(O)[C@@H]2COC(N)=O (stereo partly drawn) [Compound 6c, 9-Epi-7-N-dimethylaminomethylenemitomycin D]",0.63,5,40,0.63,2.5,1.3,9.4,11.2,14,–
"CC1=C(N=CN(C)C)C(=O)C2=C(C1=O)N1C[C@H]3[C@H](N3C)[C@]1(O)[C@H]2COC(N)=O (stereo partly shown) [Compound 3a, 7-N-Dimethylaminomethylenemitomycin D]",2.5,20,> 20,2.5,10,5,8.3,4.3,3.9,"maximum increased life span ([7]; P-388, Table 3, maximum over doses): 213%; ILS % ([7]; dose 0.25 mg/kg): 28%; ILS % ([7]; dose 0.5 mg/kg): 53%; ILS % ([7]; dose 1.0 mg/kg): 58%; ILS % ([7]; dose 2.0 mg/kg): 58%; ILS % ([7]; dose 4.0 mg/kg): 145%; ILS % ([7]; dose 6.0 mg/kg): 213%; ILS % ([7]; dose 8.0 mg/kg): 98%; anti-tumor activity against leukemia P-388 compared with Compound A ([7]; in words, versus Compound A): more excellent anti-tumor activity than Compound A; maximum increased life span ([11]; P-388 resistant to mitomycin C, Table 4, maximum over doses): 143%; ILS % ([11]; dose 1.0 mg/kg): 28%; ILS % ([11]; dose 2.0 mg/kg): 103%; ILS % ([11]; dose 4.0 mg/kg): 143%; ILS % ([11]; dose 6.0 mg/kg): 58%; ILS % ([11]; dose 8.0 mg/kg): 51%"
